pIC50: −log10 of the molar value. Several values for one entry are separate records, joined by “and”; a condition that tells them apart may be missing. Identical values can stand only once. Activity calls are given as the source filed them. The rule behind the calls is not given here.
Target: Gag-Pol polyprotein (Human immunodeficiency virus type 2 subtype A (isolate ROD)) (UniProt P04584)
Assay: Reverse transcriptase ribonuclease H inhibitors, biochemical concentration-response (AID 367)
Conditions: HIV-2 RNase H, FRET RNA/DNA substrate cleavage

Chain of Gag-Pol polyprotein (Human immunodeficiency virus type 2 subtype A (isolate ROD)) (P04584 whole entry, looked up): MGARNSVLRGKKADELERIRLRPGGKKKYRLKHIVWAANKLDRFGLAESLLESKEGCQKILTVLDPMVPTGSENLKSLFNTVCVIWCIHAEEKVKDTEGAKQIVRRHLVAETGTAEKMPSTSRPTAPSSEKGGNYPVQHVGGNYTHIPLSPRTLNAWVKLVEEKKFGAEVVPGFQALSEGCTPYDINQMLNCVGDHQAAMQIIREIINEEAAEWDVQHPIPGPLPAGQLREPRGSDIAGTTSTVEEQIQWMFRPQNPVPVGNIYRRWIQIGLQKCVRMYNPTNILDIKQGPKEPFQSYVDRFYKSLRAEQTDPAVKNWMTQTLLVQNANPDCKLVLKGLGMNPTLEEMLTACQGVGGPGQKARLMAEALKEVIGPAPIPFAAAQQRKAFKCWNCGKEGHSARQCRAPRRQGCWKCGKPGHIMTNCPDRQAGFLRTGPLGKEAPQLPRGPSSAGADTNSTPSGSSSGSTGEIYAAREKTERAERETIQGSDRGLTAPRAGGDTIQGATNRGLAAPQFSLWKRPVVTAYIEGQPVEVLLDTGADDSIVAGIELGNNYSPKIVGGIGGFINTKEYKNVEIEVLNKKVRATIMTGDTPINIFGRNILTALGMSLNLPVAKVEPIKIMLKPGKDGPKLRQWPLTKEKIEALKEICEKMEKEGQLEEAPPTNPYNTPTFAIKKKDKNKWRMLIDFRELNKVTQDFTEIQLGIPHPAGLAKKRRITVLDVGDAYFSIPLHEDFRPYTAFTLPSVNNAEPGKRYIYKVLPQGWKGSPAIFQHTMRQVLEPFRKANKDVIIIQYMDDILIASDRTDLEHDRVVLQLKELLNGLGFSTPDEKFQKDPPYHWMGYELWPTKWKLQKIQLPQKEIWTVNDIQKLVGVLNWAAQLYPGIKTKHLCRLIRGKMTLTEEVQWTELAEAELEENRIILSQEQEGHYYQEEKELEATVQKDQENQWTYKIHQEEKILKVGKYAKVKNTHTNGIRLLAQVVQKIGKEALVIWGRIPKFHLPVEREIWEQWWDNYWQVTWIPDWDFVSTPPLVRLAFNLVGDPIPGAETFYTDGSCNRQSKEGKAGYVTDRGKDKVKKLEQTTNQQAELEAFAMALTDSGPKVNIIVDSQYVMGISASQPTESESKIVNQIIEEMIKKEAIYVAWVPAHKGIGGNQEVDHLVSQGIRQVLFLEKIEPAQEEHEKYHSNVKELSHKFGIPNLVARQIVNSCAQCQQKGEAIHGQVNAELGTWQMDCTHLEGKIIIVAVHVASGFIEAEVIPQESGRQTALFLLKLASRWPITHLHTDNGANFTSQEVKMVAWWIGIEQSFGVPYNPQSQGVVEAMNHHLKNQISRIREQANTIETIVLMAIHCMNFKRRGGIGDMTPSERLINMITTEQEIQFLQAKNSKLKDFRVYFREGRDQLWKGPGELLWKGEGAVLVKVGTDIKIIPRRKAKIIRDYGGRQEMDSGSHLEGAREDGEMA

**Q.** How did the pIC50 turn out when `COc1ccccc1NC(=O)c1c(NC(=O)Cc2ccccc2)sc2c1CCCCC2` was run?
**A.** 5.07

**Q.** `CCOc1ccc(N2C(=O)/C(=C/c3ccc(Br)o3)C(=O)NC2=S)cc1` was tested. Which pIC50 did it give?
**A.** 6.05

**Q.** How did the pIC50 turn out when `O=C1CC(=O)c2ccc3c4c(ccc1c24)C(=O)CC3=O` was run?
**A.** 5.42

**Q.** `N#C/C(=C\Nc1ccc(S(=O)(=O)Nc2nccs2)cc1)c1nc(-c2ccc(Cl)cc2)cs1` was tested. Which pIC50 did it give?
**A.** 5.39

**Q.** With `O=C1C=CC(=O)C(c2cccc(Cl)c2)=C1` as the compound, how does the pIC50 read?
**A.** 5.96

**Q.** How did the IC50 turn out when `Cc1cc(=O)c2c(O)c3c(O)cc(O)c4c5c(O)cc(O)c6c(O)c7c(=O)cc(C)c8c1c2c(c34)c(c65)c78` was run?
**A.** inactive

**Q.** How did the pIC50 turn out when `O=C1c2ccccc2C(=O)c2c(NC3CCCCC3)ccc(Nc3ccc(S(=O)(=O)O)cc3)c21` was run?
**A.** 5.32

**Q.** How did the pIC50 turn out when `COc1ccc2oc(=O)c(-c3csc(Nc4ccc(Br)cc4)n3)cc2c1` was run?
**A.** 5.01

**Q.** With `Cc1ccc(S(=O)(=O)N=C2C=C(Cl)C(=O)C(Br)=C2)cc1` as the compound, how does the pIC50 read?
**A.** 5.74

**Q.** How did the pIC50 turn out when `O=C1C(Cl)=C/C(=N\S(=O)(=O)c2ccc(Cl)cc2)C(Cl)=C1Cl` was run?
**A.** 6.00

**Q.** With `CC(=O)/C=C/C=C/c1ccc2c(c1)OC(CO)C(c1ccc(O)c(O)c1)O2` (stereo unspecified) as the compound, how does the IC50 read?
**A.** inactive

**Q.** `O=C1c2ccccc2C(=O)N1c1ccc(-c2nc3ccc(N4C(=O)c5ccccc5C4=O)cc3[nH]2)cc1` was tested. Which pIC50 did it give?
**A.** 5.77

**Q.** `COc1c(OC)c(O)c2c(=O)cc(-c3ccc(O)c(O)c3)oc2c1OC` was tested. Which pIC50 did it give?
**A.** 5.52

**Q.** `O=C(O)c1cc(-c2ccc(/C=C3/Sc4ccccc4C3=O)o2)ccc1O` was tested. Which pIC50 did it give?
**A.** 5.48

**Q.** How did the IC50 turn out when `Nc1ccc(S(=O)(=O)O)c2cccc(O)c12` was run?
**A.** inactive

**Q.** How did the pIC50 turn out when `Cc1cc(C)c2c(=O)[nH]c(SCC(=O)c3ccc(O)c(O)c3)nc2n1` was run?
**A.** 5.52

**Q.** `C[C@@H]1Oc2c3c(c4c(-c5ccccc5)cc(=O)oc4c2C(=O)[C@H]1C)OC(C)(C)C=C3` was tested. Which pIC50 did it give?
**A.** 5.01

**Q.** `O=c1[nH]c(=S)n(-c2ccccc2F)c(O)c1C=C1C=CC=N1` was tested. Which pIC50 did it give?
**A.** 5.64

**Q.** With `Cc1cc(Cl)ccc1OCC(=O)Nc1sc(C)c(C)c1C(N)=O` as the compound, how does the IC50 read?
**A.** inactive

**Q.** How did the pIC50 turn out when `Cc1ccc(C)n1-c1ccc(O)c(C(=O)O)c1` was run?
**A.** 5.80

**Q.** `Cc1ccc(C)n1-c1ccc(Br)cc1C(=O)O` was tested. Which IC50 did it give?
**A.** inactive

**Q.** `Cc1ccc(S(=O)(=O)/N=C2\C=CC(=O)C=C2Cl)cc1` was tested. Which pIC50 did it give?
**A.** 5.68

**Q.** `Cc1sc(NC(=O)C2CCCO2)c(C(N)=O)c1C` (stereo unspecified) was tested. Which pIC50 did it give?
**A.** 5.37

**Q.** `CC1=C(CCC(=O)O)c2cc3nc(cc4[nH]c(cc5[nH]c(cc1n2)c(C)c5C(C)O)c(C)c4C(C)O)C(C)=C3CCC(=O)O` (stereo unspecified) was tested. Which pIC50 did it give?
**A.** 5.77

**Q.** Which IC50 does the source give for `Oc1ccc2ccccc2c1C=NCc1c(O)ccc2ccccc12` here?
**A.** inactive

**Q.** With `Nc1c(S(=O)(=O)O)cc(Nc2cccc(S(N)(=O)=O)c2)c2c1C(=O)c1ccccc1C2=O` as the compound, how does the pIC50 read?
**A.** 5.40

**Q.** How did the pIC50 turn out when `Cc1sc(NC(=O)c2cccc([N+](=O)[O-])c2)c(C(N)=O)c1C` was run?
**A.** 5.74

**Q.** For `COc1cc([C@@H]2c3cc4c(cc3C[C@H]3COC(=O)[C@@H]32)OCO4)cc(OC)c1O`, which IC50 is on record?
**A.** inactive

**Q.** `CC(C)=CCC[C@]1(C)[C@@H](CC=C(C)C)C[C@@]2(CC=C(C)C)C(=O)/C(=C(\O)c3ccc(O)c(O)c3)C(=O)[C@]1(CC=C(C)C)C2=O` was tested. Which pIC50 did it give?
**A.** 5.32

**Q.** With `O=C1C(Cl)=C(NC(=O)c2ccccc2)C(=O)C(Cl)=C1NC(=O)c1ccccc1` as the compound, how does the pIC50 read?
**A.** 5.96

**Q.** `COc1cc(-c2[o+]c3cc(O)cc(O)c3cc2O)cc(O)c1O` was tested. Which pIC50 did it give?
**A.** 5.39 and 5.51

**Q.** With `COC([CH2][Hg][n]1cnc2c1c(=O)n(C)c(=O)n2C)CN1C(=O)c2ccccc2S1(=O)=O` (stereo unspecified) as the compound, how does the pIC50 read?
**A.** 6.05

**Q.** With `Oc1cc(CN2COc3ccccc32)c(O)cc1CNC1CCCCC1` as the compound, how does the pIC50 read?
**A.** 5.54

**Q.** `O=C(O)c1c(Br)c(Br)c(Br)c(Br)c1C1c2ccc(O)cc2Oc2cc(O)ccc21` was tested. Which pIC50 did it give?
**A.** 5.10

**Q.** `NC(=O)c1c(N)sc2c1CCCCC2` was tested. Which pIC50 did it give?
**A.** 5.60

**Q.** For `CC(C)=CCC(O)C1=CC(=O)c2c(O)ccc(O)c2C1=O` (stereo unspecified), which IC50 is on record?
**A.** inactive

**Q.** With `O=C1C=CC(=NS(=O)(=O)c2ccc(Cl)c([N+](=O)[O-])c2)C=C1` as the compound, how does the pIC50 read?
**A.** 5.39

**Q.** With `Cc1cccc(NCC(=O)N/N=C\c2c(Br)cc(Br)c(O)c2Br)c1` as the compound, how does the IC50 read?
**A.** inactive

**Q.** How did the IC50 turn out when `C[N+](C)=c1ccc2nc3c(cc(Nc4ccccc4)c4ccccc43)oc-2c1` was run?
**A.** inactive

**Q.** `Cc1sc(NC(=O)Cc2ccccc2)c(C(N)=O)c1C` was tested. Which pIC50 did it give?
**A.** 5.05

**Q.** `O=C(NC(=S)Nc1cc(-c2nc3ccccc3s2)ccc1Cl)c1ccc(F)cc1` was tested. Which pIC50 did it give?
**A.** 5.04
